Several values for one entry are separate records, joined by “and”; a condition that tells them apart may be missing. Equal values may be shown once. Inconclusive results and toxic doses are left out.

The record followed here is PubChem BioAssay AID330 (DTP/NCI, 2004).

For this experiment, the system named is P388 leukemia ip, CD2F1 mice, survival T/C. Briefly: NCI In Vivo Anticancer Drug Screen. Data for tumor model P388 Leukemia (intraperitoneal) in CD2F1 (CDF1) mice. As to conditions: endpoint: median survival time, higher = longer survival. In short, it runs like this:
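Mice carrying the transplanted tumor received test compound or vehicle. Survival was recorded in each group, and the value is the treated-group measurement divided by that of the vehicle-treated control group.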

The mark [1] stands for this setting: dose: 50.0 mg/kg/injection, schedule: Q01DX005 (ip), vehicle: saline with Tween-80.
Where [2] appears, read: dose: 50.0 mg/kg/injection, schedule: Q01DX009 (ip), vehicle: saline with Tween-80.
Setting [3] is: dose: 200.0 mg/kg/injection, schedule: Q04DX003 (ip), vehicle: saline with Tween-80.
The mark [4] stands for this setting: dose: 100.0 mg/kg/injection, schedule: Q01DX005 (ip), vehicle: saline with Tween-80.
The mark [5] stands for this setting: dose: 200.0 mg/kg/injection, schedule: Q01DX005 (ip), vehicle: saline with Tween-80.
Where [6] appears, read: dose: 12.5 mg/kg/injection, schedule: Q01DX009 (ip), vehicle: other.
[7] abbreviates: dose: 25.0 mg/kg/injection, schedule: Q01DX009 (ip), vehicle: other.
Where [8] appears, read: dose: 50.0 mg/kg/injection, schedule: Q01DX009 (ip), vehicle: other.
The mark [9] stands for this setting: dose: 100.0 mg/kg/injection, schedule: Q01DX009 (ip), vehicle: other.
[10] abbreviates: dose: 200.0 mg/kg/injection, schedule: Q01DX009 (ip), vehicle: other.
Setting [11] is: dose: 50.0 mg/kg/injection, schedule: Q01DX005 (ip), vehicle: Klucel (hydroxypropylcellulose) (HPC).
The mark [12] stands for this setting: dose: 100.0 mg/kg/injection, schedule: Q01DX005 (ip), vehicle: Klucel (hydroxypropylcellulose) (HPC).
Where [13] appears, read: dose: 200.0 mg/kg/injection, schedule: Q01DX005 (ip), vehicle: Klucel (hydroxypropylcellulose) (HPC).
Setting [14] is: dose: 60.0 mg/kg/injection, schedule: Q01DX005 (ip), vehicle: saline with Tween-80.
Where [15] appears, read: dose: 120.0 mg/kg/injection, schedule: Q01DX005 (ip), vehicle: saline with Tween-80.
The mark [16] stands for this setting: dose: 240.0 mg/kg/injection, schedule: Q01DX005 (ip), vehicle: saline with Tween-80.
The mark [17] stands for this setting: dose: 100.0 mg/kg/injection, schedule: Q01DX009 (ip), vehicle: saline with Tween-80.
Setting [18] is: dose: 25.0 mg/kg/injection, schedule: Q01DX009 (ip), vehicle: saline with Tween-80.

Take `CCCCCCCCCCCCCCCCCCOS(=O)(=O)O` (tested in a mixture with another compound): the T/C (dose: 50.0 mg/kg/injection, schedule: Q01DX009 (ip), vehicle: saline) is 102 % of control; the T/C (dose: 100.0 mg/kg/injection, schedule: Q01DX009 (ip), vehicle: saline) is 104 % of control; the T/C (dose: 200.0 mg/kg/injection, schedule: Q01DX009 (ip), vehicle: saline) is 104 % of control.
For the molecule `C/C(=N\NC(=S)N1CCCCCC1)c1cccc(C)n1`, the T/C reads like this: (dose: 12.5 mg/kg/injection, schedule: Q01DX005 (ip), vehicle: saline with Tween-80) 110 % of control; (dose: 25.0 mg/kg/injection, schedule: Q01DX005 (ip), vehicle: saline with Tween-80) 109 % of control; under setting [1], 120 % of control.
Regarding `Nc1nc(N)c2nc(CNc3ccc(C(=O)NC(CC(=O)O)C(=O)O)cc3)cnc2n1` (stereo unspecified), the T/C is 150 % of control (dose: 12.5 mg/kg/injection, schedule: Q01DX009 (ip), vehicle: saline with Tween-80); 95 % of control under setting [2]; 112 % of control (dose: 66.0 mg/kg/injection, schedule: Q04DX003 (ip), vehicle: saline with Tween-80); 90 % of control under setting [3].
For `Oc1c(Cl)c(Cl)c2ncccc2c1Cl`, the T/C is 102 % of control under setting [1], 107 % of control under setting [4] and 110 % of control under setting [5].
Regarding `Cc1cnc(=O)[nH]c1NOCc1ccccc1`, the T/C reads like this: (dose: 15.0 mg/kg/injection, schedule: Q01DX001 (ip), vehicle: saline) 98 % of control; (dose: 30.0 mg/kg/injection, schedule: Q01DX001 (ip), vehicle: saline) 105 % of control; (dose: 60.0 mg/kg/injection, schedule: Q01DX001 (ip), vehicle: saline) 100 % of control.
As to `CC1(C)CC(C)(OC(=O)c2ccc([N+](=O)[O-])cc2)N=N1` (stereo unspecified), the T/C by setting is: under setting [6], 102 % of control; under setting [7], 97 % of control; under setting [8], 102 % of control; under setting [9], 100 % of control; under setting [10], 101 % of control.
Take `CNC(=O)c1nn(-c2ccccc2)c2oc(=O)cc(C)c12`: the T/C by setting is: under setting [11], 95 % of control; under setting [12], 87 % of control; under setting [13], 87 % of control.
In the case of `COc1ccc(C(OCC2CC3C=CC2C3)OCC2CC3C=CC2C3)cc1` (stereo unspecified), the T/C was 110 % of control under setting [6]; 111 % of control under setting [7]; 105 % of control under setting [8]; 114 % of control under setting [9]; 114 % of control under setting [10].
Turning to `COC(=O)N1c2ccccc2[C@@H](O)[C@@H]1OC`, the T/C by setting is: under setting [14], 119 % of control; under setting [15], 116 % of control; under setting [16], 100 % of control.
Turning to `c1ccc(-c2cc3cc4ccccc4cn3c2)cc1`, the T/C by setting is: under setting [2], 105 % of control; under setting [17], 108 % of control and 112 % of control and 92 % of control; (dose: 200.0 mg/kg/injection, schedule: Q01DX009 (ip), vehicle: saline with Tween-80) 117 % of control and 96 % of control; (dose: 400.0 mg/kg/injection, schedule: Q01DX009 (ip), vehicle: saline with Tween-80) 108 % of control and 120 % of control; (dose: 600.0 mg/kg/injection, schedule: Q01DX009 (ip), vehicle: saline with Tween-80) 117 % of control.
Consider `CCOC1(C)C=CC(=NC(C)(C)C)C=C1` (stereo unspecified), for which the T/C runs as follows: under setting [18], 97 % of control; under setting [2], 101 % of control; under setting [17], 101 % of control.
With `Cc1[nH]c(C)c(Cl)c(=O)c1Cl`, the T/C was 98 % of control (dose: 6.25 mg/kg/injection, schedule: Q01DX009 (ip), vehicle: Klucel (hydroxypropylcellulose) (HPC)); 100 % of control (dose: 12.5 mg/kg/injection, schedule: Q01DX009 (ip), vehicle: Klucel (hydroxypropylcellulose) (HPC)); 115 % of control (dose: 25.0 mg/kg/injection, schedule: Q01DX009 (ip), vehicle: Klucel (hydroxypropylcellulose) (HPC)).
Regarding `CC1=C(CO)C(=O)OC(C(C)C2CCC3C4CC5OC56C(O)C(N5CCOCC5)CC(=O)C6(C)C4CCC23C)C1` (stereo unspecified), the T/C was 103 % of control (dose: 8.25 mg/kg/injection, schedule: Q01DX005 (ip), vehicle: Klucel (hydroxypropylcellulose) (HPC)); 99 % of control (dose: 16.5 mg/kg/injection, schedule: Q01DX005 (ip), vehicle: Klucel (hydroxypropylcellulose) (HPC)); 97 % of control (dose: 33.0 mg/kg/injection, schedule: Q01DX005 (ip), vehicle: Klucel (hydroxypropylcellulose) (HPC)); 97 % of control (dose: 66.0 mg/kg/injection, schedule: Q01DX005 (ip), vehicle: Klucel (hydroxypropylcellulose) (HPC)); 103 % of control (dose: 132.0 mg/kg/injection, schedule: Q01DX005 (ip), vehicle: Klucel (hydroxypropylcellulose) (HPC)).
As to `CCCCCCCCCCCCCCCCSc1ccc(C)cc1`, the T/C reads like this: (dose: 25.0 mg/kg/injection, schedule: Q04DX003 (ip), vehicle: other) 105 % of control; (dose: 50.0 mg/kg/injection, schedule: Q04DX003 (ip), vehicle: other) 95 % of control; (dose: 100.0 mg/kg/injection, schedule: Q04DX003 (ip), vehicle: other) 100 % of control.
On to `N#Cc1ccccc1N1CCCC1=O`, for which the T/C (dose: 100.0 mg/kg/injection, schedule: Q04DX002 (ip), vehicle: saline) was 90 % of control; the T/C (dose: 200.0 mg/kg/injection, schedule: Q04DX002 (ip), vehicle: saline) was 102 % of control; the T/C (dose: 400.0 mg/kg/injection, schedule: Q04DX002 (ip), vehicle: saline) was 97 % of control.
In the case of `CC(=O)OCC1OC(n2nc(/C=C/c3ccccc3)c(=O)n(-c3ccccc3)c2=S)C(OC(C)=O)C(OC(C)=O)C1OC(C)=O` (stereo unspecified), the T/C is 103 % of control (dose: 100.0 mg/kg/injection, schedule: Q04DX003 (ip), vehicle: saline with Tween-80); 101 % of control under setting [3]; 110 % of control (dose: 400.0 mg/kg/injection, schedule: Q04DX003 (ip), vehicle: saline with Tween-80).
As to `CCCC(=O)Nc1ccc(C2=NNC(=O)C3CC23)cc1` (stereo unspecified), the T/C (dose: 50.0 mg/kg/injection, schedule: Q01DX005 (ip), vehicle: saline + Tween-80 + alcohol) was 99 % of control; the T/C (dose: 100.0 mg/kg/injection, schedule: Q01DX005 (ip), vehicle: saline + Tween-80 + alcohol) was 99 % of control; the T/C (dose: 200.0 mg/kg/injection, schedule: Q01DX005 (ip), vehicle: saline + Tween-80 + alcohol) was 97 % of control.
`NC1=N[C@H]2CS[C@@H](CCCCC(=O)ON3C(=O)CCC3=O)[C@H]2N1`: the T/C is 98 % of control (dose: 60.0 mg/kg/injection, schedule: Q01DX005 (ip), vehicle: saline); 100 % of control (dose: 120.0 mg/kg/injection, schedule: Q01DX005 (ip), vehicle: saline); 98 % of control (dose: 240.0 mg/kg/injection, schedule: Q01DX005 (ip), vehicle: saline).
As to `NC(=O)C(=O)c1cc(Cl)c(Cl)c(Cl)c1Cl`, the T/C by setting is: under setting [18], 105 % of control; under setting [2], 99 % of control; under setting [17], 96 % of control.
Turning to `CC(=O)N(O)CC(=O)OCc1ccccc1`, the T/C was 96 % of control under setting [6]; 104 % of control under setting [7]; 102 % of control under setting [8]; 111 % of control under setting [9]; 100 % of control under setting [10].
With `COc1ccc2oc3cccc(NCCN(C)C)c3c(=O)c2c1`, the T/C by setting is: (dose: 25.0 mg/kg/injection, schedule: Q01DX005 (ip), vehicle: Klucel (hydroxypropylcellulose) (HPC)) 105 % of control; under setting [11], 100 % of control; under setting [12], 107 % of control; under setting [13], 107 % of control.
For the molecule `NC(=O)N/N=C1/CC(=O)N(c2ccccc2)C1c1ccccc1` (stereo unspecified), the T/C is 93 % of control under setting [14], 91 % of control under setting [15] and 92 % of control under setting [16].
Take `O=C1c2ccccc2C(O)(c2ccc(Cl)cc2)c2ccc(Cl)cc21` (stereo unspecified): the T/C under setting [1] was 95 % of control, the T/C under setting [4] was 98 % of control and the T/C under setting [5] is 101 % of control.
